Reference: patent publication US20220187282A1, “CARDIOMYOCYTE PROLIFERATION” (The Council of the Queensland Institute of Medical Research, priority 2019, published 2022)

Test system: mature hCO
Assay: single organoid quantitative proteomics of mature hCO
Assay type: cell-based, human
Details: for cell cycle programs regulated at the protein level: mature hCO, 2 days
Protocol: Single hCO were washed 2× in PBS and snap frozen and stored at −80° C. Tissues were lysed in by tip-probe sonication in 1% SDS containing 100 mM Tris pH 8.0, 10 mM tris(2-carboxyethyl)phosphine, 40 mM 2-chloroacetamide and heated to 95° C. for 5 min. Proteins were purified using a modified Single-Pot Solid-Phase-enhanced Sample Preparation (SP3) strategy (Hughes et al., 2014). Briefly, Proteins were bound to Sera-Mag carboxylate coated paramagnetic beads in 50% acetonitrile containing 0.8% formic acid (v/v) (ThermoFisher Scientific). The beads were washed twice with 70% ethanol (v/v) and once with 100% acetonitrile. Proteins were digested on the beads in 100 mM Tris pH 7.5 containing 10% 2,2,2-Trifluoroethanol overnight at 37° C. with 200 ng of sequencing grade LysC (Wako Chemicals) and trypsin (Sigma). Beads were removed and peptides acidified to 1% trifluoroacetic acid prior to purification by styrene divinyl benzene-reversed phase sulfonated solid phase extraction microcolumns. Peptides were spiked with iRT peptides (Biognosys) and analysed on an Easy-nLC1200 coupled to a Q-Exactive HF in positive polarity mode. Peptides were separated using an in-house packed 75 μm×50 cm pulled column (1.9 μm particle size, C18AQ; Dr Maisch) with a gradient of 2-35% acetonitrile containing 0.1% FA over 120 min at 300 nL/min at 60° C. The instrument was operated in data-independent acquisition (DIA) mode essentially as described previously (Bruderer et al., 2017). Briefly, an MS1 scan was acquired from 350-1650 m/z (120,000 resolution, 3e6 AGC, 50 ms injection time) followed by 20 MS/MS variable sized isolation windows with HCD (30,000 resolution, 3e6 AGC, 27 NCE). A spectral library was created by fractionating a pooled mix of peptides from 10 separate hCO on an inhouse packed 320 μm×25 cm column (3 μm particle size, BEH; Waters) with a gradient of 2-40% acetonitrile containing 10 mM ammonium formate over 60 min at 6 μL/min using an Agilent 1260 HPLC. A total of 12 concatenated fractions were analysed using the identical LC-MS/MS conditions above except the instrument was operated in data-dependent acquisition (DDA) mode. Briefly, an MS1 scan was acquired from 350-1650 m/z (60,000 resolution, 3e6 AGC, 50 ms injection time) followed by 20 MS/MS with HCD (1.4 m/z isolation, 15,000 resolution, 1e5 AGC, 27 NCE). DDA data were processed with Andromeda in MaxQuant v1.5.8.3 (Cox and Mann, 2008) against the human UniProt database (January 2016) using all default settings with peptide spectral matches and protein false discovery rate (FDR) set to 1%. DIA data were processed with Spectronaut v11 (Bruderer et al., 2015) using all default settings with precursor and protein FDR set to 1% and quantification performed at MS2.
Proteomic data were Log 2 transformed and median normalised. Removal of unwanted variation method (RUV) was applied to remove any batch effects (Gagnon-Bartsch et al., 2013). Differential abundance was determined with two sample t-tests with FDR-based multiple hypothesis testing correction. GO analysis was performed with DAVID v6.8 and gene ontology terms from BP_FAT (Huang da et al., 2009) and heat-maps and hierarchical clustering was performed using GENE-E (Broad Institute).
In order to determine the biological processes driving the pro-proliferative effects of our hit compounds, we performed RNA-sequencing (RNA-seq) and single organoid quantitative proteomics (FIG. 4A). These analyses were performed on hCOs treated with compounds 3, 63 and 65 at concentrations of 3 μM, 0.3 μM and 1 μM, respectively. RNA-seq for hCO treated with compounds 3 and 65 clustered distinctly in principal component analysis (FIG. 4B) and regulated a total of 239 and 207 genes (FIG. 9A), respectively.

SMILES | proliferation signature proteins (cell cycle network, mevalonate enzymes, nuclear transporters) (mature hCO proteomics) | cell cycle programs regulated at the protein level | induction of the mevalonate pathway (cholesterol biosynthetic process enzymes) (mature hCO proteomics)
Cc1ccc(NC(=O)c2ccnc(N3CCOCC3)c2)cc1Nc1ccnc(N2CC(C)OC(C)C2)n1 (centres unmarked) [compound 3] | induced | DNA replication, G1/S transition and G2/M transition | –
Cc1cc(Oc2ccnc(Nc3ccc(S(N)(=O)=O)cc3)c2)c(-c2ccccn2)nc1C [compound 65] | induced | DNA replication, G1/S transition and G2/M transition | most robust inducers
